# Experimental data taken from US20110091570A1, “Compositions and Devices for Antisepsis and Anticoagulation” (priority 2008, published 2011).
# Several values for one entry are separate records, joined by “and”; a condition that tells them apart may be missing. Identical values can stand only once.
# Tests used:
# [1] = tested on: Escherichia coli, ATCC 11229; experiment: Bactericidal activity of NCT with heparin in human whole blood; type: cell-based; details: 37° C.
# Protocol: FIG. 11 presents a plot of bactericidal activity of 1% NCT with 125 IE/mL heparin in human blood against Escherichia coli (ATCC 11229) at pH 7.1 and 37° C. Mean values±standard error of the mean of three independent experiments. P<0.01 between NCT and control samples.
# Bacteria (Staphylococcus aureus, ATCC 25923 and Escherichia coli, ATCC 11229) grown in tryptic soy broth overnight were washed twice in saline and suspended in human whole blood containing 125 IE/mL heparin. Different volumes of a saline solution of NCT sodium salt were added to the suspension so that the test samples contained 10%, 25%, 50%, and 75% blood. In addition, 100% blood plus 125 IE/mL heparin was tested at which NCT was directly dissolved in blood. The final NCT concentration after mixing blood and NCT solutions was 1% in all samples. Controls contained 100% blood plus 125 IE/mL heparin and 10%, 25%, 50% and 75% blood, respectively, in saline, plus 125 IE/mL heparin without NCT. All of the solutions were incubated at 37° C. and pH 7.36-7.44 (the pH of blood). After 1, 3, 5, 10, 15, 30, 45 and 60 minutes, aliquots of 100 μL were removed and diluted tenfold or 100-fold in 0.6% sodium thiosulfate solution to inactivate the NCT. Aliquots (50 μL) of these dilutions were spread on tryptic soy agar plates. The plates were incubated at 37° C. and colony forming units of bacteria were counted after 24 and 48 hours. […]
# [2] = tested on: methicillin-resistant Staphylococcus aureus; experiment: Bactericidal activity of NCT without and with heparin (CFU counts); type: cell-based
# [3] = tested on: omniresistant Pseudomonas aeruginosa; details: NCT irrigations, three patients [Ref 18]; cited from earlier work
# D-Dimer = D-Dimer in citrate blood; type: biochemical, human; details: Example 7; for D-Dimer: individual subjects 1-11; for D-Dimer, mean value: mean of 11 subjects
# Protocol: Whole blood was taken from 11 volunteers and enriched with trisodium citrate (0.3 mL of a 0.106 molar solution per 3 mL whole blood) (S-Monovette®, Sarstedt, Nümbrecht, Germany). Commercial coagulation tests (as described in Example 6) were performed with the following samples: […]
# mice = details: transtympanal injection of 0.1%, 1%, and 10% NCT, mice [Ref. 19]; cited from earlier work
# [4] = tested on: Escherichia coli (ATCC 11229); experiment: Bactericidal activity of NCT without and with heparin (CFU counts); type: cell-based
# Protocol: FIG. 2 presents a plot of bactericidal activity of 1% NCT without and with 125 IE/mL heparin against Escherichia coli ATCC 11229 at pH 7.1 and 37° C. Mean values±standard error of the mean of three independent experiments. P>0.05 between NCT without and NCT with heparin.
# (§1) NCT was dissolved in 0.1 M phosphate buffer containing either 125 IE/mL heparin or no heparin. The final NCT concentration was 1%. Various bacterial species were grown in tryptic soy broth overnight, were washed twice in saline and then suspended in the NCT and NCT/heparin solutions. The species were Staphylococcus aureus (ATCC 25923), Escherichia coli (ATCC 11229), Streptococcus pyogenes, Staphylococcus epidermidis, Pseudomonas aeruginosa, Proteus mirabilis, and methicillin-resistant Staphylococcus aureus. Controls were performed with the foregoing bacterial species suspended in 0.1 M phosphate buffer without additives and in 0.1 M phosphate buffer containing 125 IE/mL heparin. All of the solutions were incubated at 37° C. and pH 7.1. After 1, 3, 5, 8, and 10 minutes, aliquots of 100 μL were removed and diluted 10-fold or 100-fold in 0.6% sodium thiosulfate solution to inactivate the NCT. Aliquots (50 μL) of these dilutions were spread on tryptic soy agar plates. The plates were incubated at 37° C. and colony forming units of bacteria were counted after 24 and 48 hours. […]
# [5] = tested on: Staphylococcus aureus (ATCC 25923); experiment: as above; type: cell-based
# Protocol: FIG. 1 presents a plot of bactericidal activity of 1% NCT without and with 125 IE/mL heparin against Staphylococcus aureus ATCC 25923 at pH 7.1 and 37° C. Mean values standard error of the mean of three independent experiments. P>0.05 between NCT without and NCT with heparin.
# as §1
# Proteus mirabilis = experiment: as above; type: cell-based
# Streptococcus pyogenes = experiment: as above; type: cell-based
# Protocol: FIG. 3 presents a plot of bactericidal activity of 1% NCT without and with 125 IE/mL heparin against Streptococcus pyogenes at pH 7.1 and 37° C. Mean values±standard error of the mean of three independent experiments. P>0.05 between NCT without and NCT with heparin.
# as §1
# rabbit eyes = rabbit eyes [Ref. 13]; cited from earlier work
# Staphylococcus aureus = details: local administration, mouse model [Ref 21]; cited from earlier work
# [6] = 0.1% NCT, virtually identical experiments
# [7] = 1% NCT, 125 IE/mL heparin, pH 7.1, 37° C., 1-10 min
structure (smiles),measurement,setting,value
"O=S(=O)(O)CCNCl [NCT, N-chlorotaurine]",bactericidal activity in blood,[1]; 1% NCT dissolved in 100% blood plus 125 IE/mL heparin,no significant bactericidal activity was detected
same,bactericidal activity in blood,"[1]; 1% NCT in 10%, 25%, 50% and 75% blood plus 125 IE/mL heparin",demonstrated bactericidal activity
same,influence of heparin on the killing of bacteria,[2]; [6],no statistically significant influence of heparin on the killing of bacteria
same,killing activity of NCT with vs without heparin,[2]; [7],no difference in the killing activity
same,eradication of bacteria from the urinary bladder,[3],possible to eradicate bacteria from the urinary bladder
same,D-Dimer,D-Dimer; 0.01% NCT,209 µg/L and 195 µg/L and 340 µg/L and 143 µg/L and 50 µg/L and 174 µg/L and 241 µg/L and 155 µg/L and 132 µg/L and 191 µg/L and 149 µg/L
same,"D-Dimer, mean value",D-Dimer; 0.01% NCT,179.9 µg/L
same,D-Dimer,D-Dimer; 0.025% NCT,200 µg/L and 179 µg/L and 316 µg/L and 122 µg/L and 50 µg/L and 153 µg/L and 227 µg/L and 143 µg/L and 126 µg/L and 172 µg/L and 132 µg/L
same,"D-Dimer, mean value",D-Dimer; 0.025% NCT,165.5 µg/L
same,damage of the inner ear,mice,did not cause damage of the inner ear
same,influence of heparin on the killing of bacteria,[4]; [6],no statistically significant influence of heparin on the killing of bacteria
same,killing activity of NCT with vs without heparin,[4]; [7],no difference in the killing activity
same,influence of heparin on the killing of bacteria,[5]; [6],no statistically significant influence of heparin on the killing of bacteria
same,killing activity of NCT with vs without heparin,[5]; [7],no difference in the killing activity
same,influence of heparin on the killing of bacteria,Proteus mirabilis; [6],no statistically significant influence of heparin on the killing of bacteria
same,killing activity of NCT with vs without heparin,Proteus mirabilis; [7],no difference in the killing activity
same,influence of heparin on the killing of bacteria,Streptococcus pyogenes; [6],no statistically significant influence of heparin on the killing of bacteria
same,killing activity of NCT with vs without heparin,Streptococcus pyogenes; [7],no difference in the killing activity
same,tolerability in topical and localized applications,rabbit eyes,relatively safe and well-tolerated
same,effect on septic arthritis,Staphylococcus aureus,inhibited septic arthritis
